Laboratory results taken from patent publication US20120277177A1, “CRYSTALLINE PHASES OF 5,6-DICHLORO-2-(ISOPROPYLAMINO)-1-BETA-RIBOFURANOSYL-1H-BENZIMIDAZOLE” (priority 2010, published 2012).

Assay: Solid-state stability on storage in the well-plate under ambient temperature and relative humidity
Type: physicochemical
Conditions: for form change (desolvation / transformation) after storage: storage in the well-plate under ambient temperature and relative humidity for approximately 3 weeks
Source text: The invention relates to the anhydrate crystalline Form VIII, hydrates and solvates both in pure form and in admixture with other anhydrate forms, hydrates or solvates of the compound of formula (I).

Row | SMILES | form change (desolvation / transformation) after storage | form change (transformation) after storage (approximately 4 weeks of storage under ambient conditions)
1 | CC(C)Nc1nc2cc(Cl)c(Cl)cc2n1[C@H]1O[C@@H](CO)[C@H](O)[C@@H]1O [acetonitrile solvate, 5,6-dichloro-2-(isopropylamino)-1-(β-L-ribofuranosyl)-1H-benzimidazole] | completely desolvated and transformed to the anhydrate Form V | 
2 | CC(C)Nc1nc2cc(Cl)c(Cl)cc2n1[C@H]1O[C@@H](CO)[C@H](O)[C@@H]1O [n-propyl acetate solvate, 5,6-dichloro-2-(isopropylamino)-1-(β-L-ribofuranosyl)-1H-benzimidazole] | partially desolvated and transformed to the anhydrate Form VI | 
3 | CC(C)Nc1nc2cc(Cl)c(Cl)cc2n1[C@H]1O[C@@H](CO)[C@H](O)[C@@H]1O [t-butylmethyl ether solvate 2, 5,6-dichloro-2-(isopropylamino)-1-(β-L-ribofuranosyl)-1H-benzimidazole] |  | partially transformed into Form VI
